Results reported in BindingDB's records for doi:10.1021/acs.jmedchem.6b00397 (IQM-CSIC, 2016).

Target: Cannabinoid receptor 2 (Homo sapiens, UniProt P34972)
Assay: Displacement of [3H]-CP55940 from human CB2 receptor expressed in HEK293 cell membranes after 90 mins by liquid scintillation counting method

Chain of Cannabinoid receptor 2 (P34972 whole entry): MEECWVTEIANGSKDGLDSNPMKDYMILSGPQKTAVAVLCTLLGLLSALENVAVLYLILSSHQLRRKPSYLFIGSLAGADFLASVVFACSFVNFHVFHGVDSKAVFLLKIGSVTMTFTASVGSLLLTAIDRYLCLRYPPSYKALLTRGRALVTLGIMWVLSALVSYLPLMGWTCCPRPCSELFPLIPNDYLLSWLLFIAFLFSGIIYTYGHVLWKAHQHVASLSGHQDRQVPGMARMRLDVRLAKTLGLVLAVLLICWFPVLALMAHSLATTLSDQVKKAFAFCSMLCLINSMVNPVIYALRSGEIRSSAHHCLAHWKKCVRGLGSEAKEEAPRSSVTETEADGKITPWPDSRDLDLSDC

SMILES	Ki
CCCCCCC(C)(C)c1cc(O)c2c(c1)OC(C)(C)c1cnn(CC)c1-2	> 40 µM
CCCCCCC(C)(C)c1cc(O)c2c(c1)OC(C)(C)c1cn(C)nc1-2	> 40 µM
CCCCCCC(C)(C)c1cc(O)c2c(c1)OC(C)(C)c1cnn(-c3ccc(Cl)cc3Cl)c1-2	> 40 µM
CCCCCCC(C)(C)c1cc(O)c2c(c1)OC(C)(C)c1cn(CC)nc1-2	> 40 µM
